From patent US20250352654A1, “PHARMACEUTICAL AGENT CONJUGATES TO MODULATE MACROPHAGE AND INFLAMMATORY FUNCTIONS AND USES THEREOF” (REGENTS OF THE UNIVERSITY OF MINNESOTA, priority 2022, published 2025)
Read-outs that look alike come from different tables or passages of the source. Bridge positions count the residues as written; N and C are the ends. Square brackets hold non-standard residues; d marks the D form. Ends that are not written are not given here. FAM = fluorescein amidite (fluorescein); Ahx = NCCCCCC(=O)O

How the values were obtained:
arthritic joints = assay: CRV accumulation in joints of K/BxN serum-transfer arthritis mice (IHC); type: in vivo, mouse; details: FAM peptide i.v., 1 hour
Method: (B) The arthritic mice were injected intravenously with a control peptide (GGS, top) or CRV (bottom). The mice were sacrificed after 1 hour and joints were collected for IHC staining.
FIGS. 7B-7D illustrates In vivo CRV peptide distribution in arthritic mouse models. (B) Scheme of synthesis of 64Cu-DOTA-CRV. (C) Representative immunohistochemistry (IHC) images of peptide accumulation in the tissues of collagen-induced-arthritis (CIA) mice with anti-FITC antibody for FAM-labeled CRV and FAM-GGS, upon intravenous injection for 1 h, respectively. Scale bars: 100 μm. (D) Representative IHC images of CRV-peptide and a control peptide (GGS) accumulation in the ankle joints of K/B×N serum-transfer arthritic mice at 1 h post intravenous injection as detected by FAM signals with anti-FITC antibody. Scale bar: 200 μm for 10× magnification; 100 μm for 20× magnification. All the animal experiments were performed in 3 mice per group. DOTA, 1,4,7,10-tetraazacyclododocane tetraacetic acid; FAM, carboxyfluorescein; FITC, fluorescein isothiocyanate.
To study the accumulation of CRV in inflamed joints, 100 μl of fluorescein (FAM)-CRV peptide solution (1 mg/ml in PBS) and the control peptide, GGS (SEQ ID NO: 2), was injected intravenously into mice with K/B×N serum-transfer arthritis (for a description of this mouse model, see VetPathol 52(5):819-26, 2015). […]

inflamed lung = assay: CRV peptide homing in LPS-induced ALI mice (IHC/IF); type: in vivo, mouse; details: healthy (PBS) mice; FAM-labeled peptide i.v., 1 h; IHC and IF
Method: (A) Representative immunohistochemistry (IHC) images of targeting RXRB by CRV peptide in the lung of acute lung injury (ALI) mice. Control (PBS) or ALI (LPS-treated) mice were intravenously injected with FAM-labeled CRV or a control peptide (GGS) for 1 h homing, respectively. The lungs were collected for IHC analysis on whole-cell RXRB expression (left) and peptide amount (detected by anti-FITC antibody, right). (B) Quantification of FITC expression for FAM-labeled peptides in the lungs by IHC staining. (C) Representative immunofluorescence (IF) images of colocalization of rabbit anti-RXRB antibody with CD11b in PBS controls (top) and acute lung injury (ALI) mice (bottom). The lungs were collected for IF staining for the indicated markers after 6 h in vivo homing by intravenous injection of 25 mg of rabbit polyclonal RXRB antibodies in […] of PBS in mice. The mice receiving intratracheal injection of PBS served as healthy controls. All the animal experiments were performed in three mice per group. (D) Relative percentage of RXRB-positive cells in different tissues of ALI mice. […] The fluorescence intensity for CRV or GGS binding per cells was plotted in the histograms. […] (H) Quantification of RXRB in IHC sections from lungs of human subjects with ILD. […] FAM, carboxyfluorescein; FITC, fluorescein iso-thiocyanate; A.U., arbitrary units; MFI, mean fluorescence intensity; Neg, negative. […]

4T1 breast cancer tumor = assay: Tumor accumulation of D-CRV and L-CRV after oral administration; type: in vivo, mouse; details: 4 hours, IF
Method: FAM-labeled L-CRV or D-CRV was orally administered to tumor-bearing mice.
To compare the in vivo distributions of the D-isoform of CRV (D-CRV) and the L-isoform of CRV (L-CRV), fluorescein (FAM) dye labeled D-CRV and L-CRV peptides were synthesized. 100 μL of peptide solution (5 mg/mL in PBS) was administered via oral gavage into mice bearing a 4T1 breast cancer tumor (for a description of how this mouse model is generated, see J Control Release 301:42-53, 2019) 4 hours before the tumors were collected. Peptide accumulation in the tumor was observed by immunofluorescence (IF) staining of FAM. We had previously shown that L-CRV homes to such tumors following intravenous injection. […] Additionally, (D)-CRV-DEX was first applied to RA mice model via subcutaneous administration with hydrogel. […] The pharmacokinetics (PK) and biodistribution at other time points will be further evaluated.

[1] = type: in vivo, mouse; details: for Thymus weight: mean; for Lymphocytes (count of total blood lymphocytes) / T cells (CD45+CD3+) count: normalized to the vehicle group
Method: (C and D) Flow-cytometry analysis of blood cell populations in mice with different treatment. The count of (C) blood lymphocytes and (D) T cells in mice receiving different treatment were normalized to the vehicle group. […] The weight of thymus was measured, and the blood was collected for flow cytometry 4 h after the third dose of treatment. All experiments were performed in 3-4 mice per group, and the experiment was repeated three times. Data shown are mean±SD. Student's t test was performed for statistical analysis. *p<0.05, **p<0.01, ***p<0.001.
The gating was started with choosing the live cells by plotting SSC-A vs. FSC-A. Single cells were then selected by plotting FSC-A vs. FSC-H for the live cells followed by subpopulation of CD45+ cells. The lymphocytes were selected by plotting CD45+ cells and SSC-A, which were then selected for T cells by CD3 staining. The tissues and the blood were collected 4 hours after the third dose of treatment. All experiments were performed in 3-4 mice per group and the experiment was repeated three times. The data are presented as the mean±standard deviation (SD). Statistical significance was calculated using Student's t test.
To identify subpopulations of myeloid cells, single cell suspensions were collected from the lung with a lung dissociation kit for mouse (Miltenyi Biotec, Auburn, CA) and other tissues, including blood and spleen, were collected for flow cytometry analysis. […] Flow cytometry analysis was performed on a BD Fortessa™ X-20 (BD Biosciences, East Rutherford, NJ). The data were analyzed with Flow JO™ software (Tree Star, San Carlos, CA).

[2] = In vivo pharmacokinetics of PSL conjugates; details: male, C57BL/6, mouse, plasma, iv, healthy mice, 1 mg kg-1 equivalent dose of PSL
Method: FIG. 2U discloses mean plasma concentration-time curves of PSL following intravenous administration of free PSL, Cys-PSL and CRV-PSL with an equivalent PSL dosage at 1 mg kg^−1. All the animal experiments were performed in 3-4 mice per group. The data are presented as the mean±standard deviation (SD). Statistical significance was calculated using Student's t test. *P<0.05, **P<0.01, CRV-PSL vs free PSL group; #P<0.05, ##P<0.01, ###P<0.001 Cys-PSL vs free PSL group.
HPLC-MS/MS analysis was performed using the chromatographic system consisted of UltiMate™ 3000 RSLCnano System (Thermo Fisher Scientific) and a ZORBAX™ C18 column (5 μm, 150 mm 0.5 mm, Agilent, Santa Clara, CA). The mobile phase was a mixture of H2O/acetonitrile with a gradient elution (from 90:10 to 10:90 and return to 90:10, v/v) at a flow rate of 15 μl/min. The eluent was introduced directly into the electrospray source of a tandem quadrupole mass spectrometer (TSQ VANTAGE™, Thermo Fisher Scientific) that was operated in the positive mode. The spray voltage was set at 3000 V. The compounds were analyzed by multiple reaction monitoring (MRM) of the transitions of m/z (ESI+) 361.24→147.06 for PSL.
Healthy male C57BL/6 mice (8- to 9-weeks-old; body weight of 25-30 g) were deprived of food overnight with free access to water. […]
We first evaluated the plasma pharmacokinetics of CRV-PSL in healthy mice.

[3] = 0.1 or 1 mg kg-1 PSL equivalent

**Q.** What does the source list for “GGS: control peptide <FAM>-<Ahx>-GGSGGSKG (SEQ ID NO: 2) ({FAM-Ahx}-GGSGGSKG)”?
**A.** peptide accumulation in arthritic joints (arthritic joints): few FAM signals were detected; peptide accumulation in the healthy lung (inflamed lung): little accumulation

**Q.** For “D-CRV: D-isoform of CRV (SEQ ID NO: 52), fluorescein (FAM) dye labeled ([dC][dR][dV][dL][dR][dS]G[dS][dC]; disulfide 1-9 (inferred); also: FAM label, position not given here)”, which “peptide accumulation in the tumor” value (4T1 breast cancer tumor; FAM-labeled peptide, oral gavage 100 uL of 5 mg/mL) is on record?
**A.** significant accumulation of CRV in the tumors

**Q.** What about the “colocalization with CD11b in the tumor” value (4T1 breast cancer tumor; oral gavage) of the same compound?
**A.** colocalization with the myeloid cell marker CD11b in the tumor

**Q.** Which results are given for `C[C@]12C=CC(=O)C=C1CC[C@@H]1[C@@H]2[C@@H](O)C[C@@]2(C)[C@H]1CC[C@]2(O)C(=O)CO` [Free PSL, prednisolone]?
**A.** Thymus weight ([1]; 0.1 mg kg-1 PSL equivalent i.v. every 2 days for 5 days): 36.3 mg; Lymphocytes (count of total blood lymphocytes) ([1]; 0.1 mg kg-1 PSL equivalent): 0.45 fold changes; T cells (CD45+CD3+) count ([1]; 0.1 mg kg-1 PSL equivalent): 0.47 fold changes; Thymus weight ([1]; 1 mg kg-1 PSL equivalent i.v. every 2 days for 5 days): 28.3 mg; Lymphocytes (count of total blood lymphocytes) ([1]; 1 mg kg-1 PSL equivalent): 0.27 fold changes; T cells (CD45+CD3+) count ([1]; 1 mg kg-1 PSL equivalent): 0.40 fold changes; apoptosis in the thymus and other organs (TUNEL) [1, 3]: increases the level of apoptosis mainly in the thymus; counts of total lymphocytes and T subsets (in words) [1, 3]: reduced the counts of total lymphocytes and T subsets; thymus weight (in words) ([1]; 0.1 or 1 mg kg-1 PSL equivalent i.v. every two days for five days): greatest reduction in thymus weight; AUC(0-t) ([2]; mean (n = 3)): 41300 ng·h/mL; half-life ([2]; mean ± SD (n = 3)): 3.78 ± 0.5 h
